pIC50: −log10 of the molar value.
Legend:
[1] = tested on: ovarian cancer cell line A2870; experiment: VEGF-induced proliferation of ovarian cancer cell line A2870; type: cell-based; conditions: data not shown
Procedure: (§1) Cell proliferation was determined by a modified MTS assay with […] 96® Aqueous One Solution Reagent (Promega, Madison, Wis.). A2780 ovarian cancer cells, MIAPAC-2 pancreatic cancer cells, or GEO colon cancer cells were seeded on 96-well flat-bottomed tissue culture plates (Becton Dickinson, San Jose, Calif.) at a concentration of 3×10^3 cells/well in RPMI 1640 with 1% fetal bovine serum at 37° C. in 5% carbon dioxide/95% air in the presence of 100 units/ml penicillin, 100 μg/ml streptomycin and allowed to adhere to the plate overnight. Then the cells were incubated in the presence of each concentration of 0 (control), 0.3, 0.6, 1.25, 2.5, 5, 10 ng/ml of FGF2 or VEGF for another 72 hours at 37° C. in a humidified atmosphere of 5% CO2 in air. After treatment, 20 μl of […] 96® Aqueous One Solution Reagent was dropped into each well of plates. After 180 minutes incubation, the optical densities (OD) of these samples were directly measured using SPECTRAMAX® plus (Molecular Device, California) and reference wavelength of 490 nm. The OD of control samples was regarded as 100. Each condition was performed with 4 wells and experiment was repeated twice.

[2] = tested on: FGF2 growth factor gene expression; experiment: FGF2 gene expression, AFFYMETRIX human arrays
[3] = tested on: A2780 ovarian cancer cells; experiment: FGF2-induced proliferation of A2780 ovarian cancer cells (modified MTS assay); type: cell-based; conditions: A2780 ovarian cancer cells
Procedure: as §1

VEGF gene expression = experiment: VEGF gene expression, AFFYMETRIX human arrays
[4] = tested on: pancreatic cancer cell line MIAPAC-2; experiment: VEGF-induced proliferation of pancreatic cancer cell line MIAPAC-2; type: cell-based; conditions: data not shown
Procedure: as §1

[5] = tested on: MIAPAC-2 pancreatic cancer cells; experiment: FGF2-induced proliferation of MIAPAC-2 pancreatic cancer cells (modified MTS assay); type: cell-based; conditions: MIAPAC-2 pancreatic cancer cells
Procedure: as §1

[6] = tested on: FGF2-stimulated cancer cell lines; experiment: FGF2-stimulated tumor cell proliferation, panel of cancer cell lines; type: cell-based; conditions: panel of 16 cell lines; FGF2 2.5 ng/ml; read-out: IC50, FGF2-induced tumor cell proliferation in vitro
Procedure: […], GEO, L2987, 786-0, A549, A498, Du145, PANC-1, ACHN, HT1197, CALU6, SKOV3, 769-[…], HCT166 and UMUC3. […] Gene expression profiling was performed on RNA samples from tumor cell lines using AFFYMETRIX® GeneChip System.

## bevacizumab [reference compound]
[1]
  effect on VEGF-induced cellular proliferation: did not show significant sensitivity
[2]
  modulation of FGF2 growth factor gene expression levels: did not
[3]
  effect on FGF2-induced cellular proliferation: did not show significant sensitivity
VEGF gene expression
  modulation of VEGF gene expression levels: modulated VEGF gene expression levels
[4]
  effect on VEGF-induced cellular proliferation: did not show significant sensitivity
[5]
  effect on FGF2-induced cellular proliferation: did not show significant sensitivity

## CCN(CC)CCNC(=O)c1c(C)[nH]c(/C=C2\C(=O)Nc3ccc(F)cc32)c1C [sunitinib, reference compound]
[6]
  pIC50: ~5.00

Source: patent US20100234381A1, “BIOMARKERS AND METHODS FOR DETERMINING SENSITIVITY TO VASCULAR ENDOTHELIAL GROWTH FACTOR RECEPTOR-2 MODULATORS” (Bristol-Myers Squibb Company, priority 2007, published 2010)
